A value given as a limit tells only on which side of the number the result lay.

This assay relates to SARS-CoV-2. Put plainly: microbe, parasite or virus in culture. As to conditions: Severe acute respiratory syndrome coronavirus 2, Vero C1008, 48 h.

`NS(=O)(=O)c1ccc(C(=O)O)cc1` [CARZENIDE] yielded an IC50 above 20 µM. Besides, the IC50 (read-out: pIC50 (converted)) is above 20 µM.

Regarding `CC(=O)Oc1cc(OC(C)=O)c2c(c1)O[C@H](c1ccc(OC(C)=O)c(OC(C)=O)c1)[C@@H](OC(C)=O)C2` [CATECHIN PENTAACETATE], the IC50 was above 20 µM. Besides, the IC50 (read-out: pIC50 (converted)) was above 20 µM.

For the compound `Oc1cc(O)c2c(c1)OC(c1ccc(O)c(O)c1)C(O)C2` (stereo not drawn) [CATECHIN], the IC50 is above 20 µM. For the same compound, the IC50 (read-out: pIC50 (converted)) was above 20 µM.

`COc1ccc([C@H](Cc2ccncc2)c2ccccc2)cc1OC1CCCC1` [CDP840] gave an IC50 above 20 µM. Also, the IC50 (read-out: pIC50 (converted)) was above 20 µM.

In turn, `COC[C@H](O)Cn1c(=O)cnn(-c2ccc(Cl)c(C(=O)NCC3(O)CCCCCC3)c2)c1=O` [CE-224535] had an IC50 above 20 µM. For the same compound, the IC50 (read-out: pIC50 (converted)) is above 20 µM.

In turn, `COc1cc2c(Oc3ccc4[nH]c(C)cc4c3F)ncnc2cc1OCCCN1CCCC1` [CEDIRANIB] returned an IC50 above 20 µM. Besides, where the note is “read-out: pIC50 (converted)”, the IC50 was above 20 µM.

`N[C@@H](C(=O)N[C@@H]1C(=O)N2C(C(=O)O)=C(Cl)CS[C@H]12)c1ccccc1` [CEFACLOR ANHYDROUS] registered an IC50 above 20 µM. The IC50 (read-out: pIC50 (converted)) is above 20 µM.

Consider `Cn1nnnc1SCC1=C(C(=O)O)N2C(=O)[C@@H](NC(=O)[C@H](O)c3ccccc3)[C@H]2SC1` [CEFAMANDOLE], for which the IC50 is above 20 µM. Further, under “read-out: pIC50 (converted)”, the IC50 was above 20 µM.

As to `Cc1nnc(SCC2=C(C(=O)O)N3C(=O)[C@@H](NC(=O)Cn4cnnn4)[C@H]3SC2)s1` [CEFAZOLIN], the IC50 is above 20 µM. Also, where the note is “read-out: pIC50 (converted)”, the IC50 is above 20 µM.

Take `C=CC1=C(C(=O)O)N2C(=O)[C@@H](NC(=O)/C(=N\OCC(=O)O)c3csc(N)n3)[C@H]2SC1` [CEFIXIME]: the IC50 was above 20 µM. Moreover, under “read-out: pIC50 (converted)”, the IC50 was above 20 µM.

The compound `CO[C@@]1(NC(=O)CSCC#N)C(=O)N2C(C(=O)O)=C(CSc3nnnn3C)CS[C@@H]21` [CEFMETAZOLE] yielded an IC50 above 20 µM. Further, the IC50 (read-out: pIC50 (converted)) was above 20 µM.

`CCN1CCN(C(=O)N[C@@H](C(=O)N[C@@H]2C(=O)N3C(C(=O)O)=C(CSc4nnnn4C)CS[C@H]23)c2ccc(O)cc2)C(=O)C1=O` [CEFOPERAZONE] gave an IC50 above 20 µM. Besides, the IC50 (read-out: pIC50 (converted)) is above 20 µM.

Take `NCc1ccccc1CC(=O)N[C@@H]1C(=O)N2C(C(=O)O)=C(CSc3nnnn3CC(=O)O)CS[C@H]12` [CEFORANIDE]: the IC50 is above 20 µM. Moreover, where the note is “read-out: pIC50 (converted)”, the IC50 is above 20 µM.

In turn, `CO/N=C(\C(=O)N[C@@H]1C(=O)N2C(C(=O)O)=C(COC(C)=O)CS[C@H]12)c1csc(N)n1` [CEFOTAXIME] yielded an IC50 above 20 µM. In addition, the IC50 (read-out: pIC50 (converted)) is above 20 µM.

As for `CO[C@@]1(NC(=O)C2SC(=C(C(N)=O)C(=O)O)S2)C(=O)N2C(C(=O)O)=C(CSc3nnnn3C)CS[C@@H]21` (stereo partly drawn) [CEFOTETAN], the IC50 is above 20 µM. Where the note is “read-out: pIC50 (converted)”, the IC50 is above 20 µM.

Compound `CN(C)CCn1nnnc1SCC1=C(C(=O)O)N2C(=O)[C@@H](NC(=O)Cc3csc(N)n3)[C@H]2SC1` [CEFOTIAM] had an IC50 above 20 µM. The IC50 (read-out: pIC50 (converted)) is above 20 µM.

The compound `CO[C@@]1(NC(=O)Cc2cccs2)C(=O)N2C(C(=O)O)=C(COC(N)=O)CS[C@@H]21` [CEFOXITIN] had an IC50 above 20 µM. Besides, the IC50 (read-out: pIC50 (converted)) was above 20 µM.

For the compound `COCC1=C(C(=O)OC(C)OC(=O)OC(C)C)N2C(=O)[C@@H](NC(=O)/C(=N\OC)c3csc(N)n3)[C@H]2SC1` (stereo partly drawn) [CEFPODOXIME PROXETIL], the IC50 is above 20 µM. Further, the IC50 (read-out: pIC50 (converted)) was above 20 µM.

`CC(C)(O/N=C(\C(=O)N[C@@H]1C(=O)N2C(C(=O)[O-])=C(C[n+]3ccccc3)CS[C@H]12)c1csc(N)n1)C(=O)O` [CEFTAZIDIME] showed an IC50 above 20 µM. In addition, for the setting “read-out: pIC50 (converted)”, the IC50 was above 20 µM.

`CO/N=C(\C(=O)N[C@@H]1C(=O)N2C(C(=O)O)=C(CSc3nc(=O)c(O)nn3C)CS[C@H]12)c1csc(N)n1` [CEFTRIAXONE] displayed an IC50 above 20 µM. Also, the IC50 (read-out: pIC50 (converted)) was above 20 µM.

`CO/N=C(\C(=O)N[C@@H]1C(=O)N2C(C(=O)O)=C(COC(N)=O)CS[C@H]12)c1ccco1` [CEFUROXIME] showed an IC50 above 20 µM. Moreover, the IC50 (read-out: pIC50 (converted)) was above 20 µM.

For `Cc1ccc(-c2cc(C(F)(F)F)nn2-c2ccc(S(N)(=O)=O)cc2)cc1` [CELECOXIB], the IC50 is above 20 µM. Besides, the IC50 (read-out: pIC50 (converted)) was above 20 µM.

As for `CCCC(=O)O[C@H]1CN2CC[C@H](O)[C@@H]2[C@@H](O)[C@@H]1O` [CELGOSIVIR], the IC50 is above 20 µM. For the same compound, the IC50 (read-out: pIC50 (converted)) was above 20 µM.

On to `CCN(CC)C(=O)Nc1ccc(OCC(O)CNC(C)(C)C)c(C(C)=O)c1` (stereo not drawn) [CELIPROLOL], for which the IC50 was above 20 µM. Besides, the IC50 (read-out: pIC50 (converted)) is above 20 µM.

Regarding `NC(=O)O[C@@H](Cn1ncnn1)c1ccccc1Cl` [CENOBAMATE], the IC50 was above 20 µM. The IC50 (read-out: pIC50 (converted)) is above 20 µM.

On to `COc1cc2ncnc(Oc3cccc(NC(=O)Nc4cc(C(C)(C)C(F)(F)F)on4)c3)c2cc1OC` [CEP-32496], for which the IC50 is above 20 µM. Besides, the IC50 (read-out: pIC50 (converted)) is above 20 µM.

In turn, `CC[C@H]1CN2CCc3cc(OC)c(OC)cc3[C@@H]2C[C@@H]1C[C@H]1NCCc2cc(O)c(OC)cc21` [CEPHAELINE] displayed an IC50 above 20 µM. Further, the IC50 (read-out: pIC50 (converted)) is above 20 µM.

The compound `CC1=C(C(=O)O)N2C(=O)[C@@H](NC(=O)[C@H](N)c3ccccc3)[C@H]2SC1` [CEPHALEXIN ANHYDROUS] gave an IC50 above 20 µM. The IC50 (read-out: pIC50 (converted)) was above 20 µM.

`CCS(=O)(=O)N1CCN(c2ccc(Nc3ncc(C(N)=O)c(NC4CC4)n3)cc2)CC1` [CERDULATINIB]: the IC50 is above 20 µM. Besides, under “read-out: pIC50 (converted)”, the IC50 was above 20 µM.

Compound `Cc1cc(Nc2ncc(Cl)c(Nc3ccccc3S(=O)(=O)C(C)C)n2)c(OC(C)C)cc1C1CCNCC1` [CERITINIB] came in with an IC50 above 20 µM. Also, for the setting “read-out: pIC50 (converted)”, the IC50 is above 20 µM.

For `COCc1c(C(C)C)nc(C(C)C)c(/C=C/[C@@H](O)C[C@@H](O)CC(=O)O)c1-c1ccc(F)cc1` [CERIVASTATIN], the IC50 is above 20 µM. For the same compound, the IC50 (read-out: pIC50 (converted)) was above 20 µM.

Take `NCCCC[C@H](OP(=O)(O)CCCCc1ccccc1)C(=O)N1CCC[C@H]1C(=O)O` [CERONAPRIL]: the IC50 was above 20 µM. In addition, where the note is “read-out: pIC50 (converted)”, the IC50 was above 20 µM.

Compound `C/C=C/C/C=C/CCC(=O)[C@H]1O[C@H]1C(N)=O` [CERULENIN] registered an IC50 above 20 µM. Moreover, under “read-out: pIC50 (converted)”, the IC50 is above 20 µM.

Compound `CNC(=O)COc1ccccc1OCC(O)CNC(C)(C)C` (stereo not drawn) [CETAMOLOL] registered an IC50 above 20 µM. Moreover, the IC50 (read-out: pIC50 (converted)) is above 20 µM.

In turn, `CC[C@H]1OC(=O)[C@H](C)C(=O)[C@H](C)[C@@H](O[C@@H]2O[C@H](C)C[C@H](N(C)C)[C@H]2O)[C@](C)(OCC=Cc2cnc3ccccc3c2)C[C@@H](C)C(=O)[C@H](C)[C@H]2NC(=O)O[C@@]21C` [CETHROMYCIN] had an IC50 above 20 µM. For the same compound, for the setting “read-out: pIC50 (converted)”, the IC50 is above 20 µM.

Turning to `O=C(O)COCCN1CCN(C(c2ccccc2)c2ccc(Cl)cc2)CC1` (stereo not drawn) [CETIRIZINE], the IC50 is above 20 µM. The IC50 (read-out: pIC50 (converted)) was above 20 µM.

`CCCCCCCCCCCCCCCC[N+](C)(C)C` [CETRIMONIUM] registered an IC50 above 20 µM. Besides, under “read-out: pIC50 (converted)”, the IC50 is above 20 µM.

In the case of `Cc1c(N)cccc1Cn1ccc(OCCc2cccs2)cc1=O` [CG-400549], the IC50 is above 20 µM. Also, the IC50 (read-out: pIC50 (converted)) was above 20 µM.

Consider `CN1Cc2c(ccc3c2OCO3)C2C(O)Cc3cc4c(cc3C21)OCO4` (stereo not drawn) [CHELIDONINE (+)], for which the IC50 was above 20 µM. Also, the IC50 (read-out: pIC50 (converted)) is above 20 µM.
